Measurements from patent publication US9968097B2 (priority 2012, dated 2018).
Structures can show the parent of a compound that is named as a salt. Where two headings read alike, the source gives them in different places.

Assays:
Assay type in all cases: in vivo
Phytophthora infestans = details: tomatoes, preventive, evaluated 3 days after inoculation
Botrytis cinerea = assay: Botrytis test (beans)/preventive; details: 10 ppm a.i., preventive, lesion size 2 days after inoculation
Source text: Botrytis Test (Beans)/Preventive

Venturia inaequalis = assay: Venturia test (apples)/preventive; details: 100 ppm a.i., preventive, evaluated 10 days after inoculation
Source text: Venturia Test (Apples)/Preventive

Sphaerotheca fuliginea = assay: Sphaerotheca test (cucumbers)/preventive; details: preventive, evaluated 7 days after inoculation
Source text: Sphaerotheca Test (Cucumbers)/Preventive

Alternaria solani = assay: Alternaria test (tomatoes)/preventive; details: preventive, evaluated 3 days after inoculation
Source text: Alternaria Test (Tomatoes)/Preventive

Molecule: N#Cc1c[nH]cc1-c1cccc2c1OC(F)(F)O2 [F248 fludioxonil, fludioxonil]
- Efficacy in % found (Phytophthora infestans; 100 ppm a.i.): 12%
- Efficacy in % found (Botrytis cinerea): 87%
- Efficacy in % found (Venturia inaequalis): 0%
- Efficacy in % found (Sphaerotheca fuliginea; 100 ppm a.i.): 83%

Molecule: COCC(=O)N(c1c(C)cccc1C)C(C)C(=O)OC (stereo not drawn) [F241 metalaxyl, metalaxyl]
- Efficacy in % found (Alternaria solani; Table D2, 100 ppm a.i.): 8%

Molecule: metalaxyl-M (mefenoxam) [F242 mefenoxam]
- Efficacy in % found (Alternaria solani; Table D2, 100 ppm a.i.): 0%

Molecule: CCCOC(=O)NCCCN(C)C [F220 propamocarb-HCl, propamocarb hydrochloride]
- Efficacy in % found (Phytophthora infestans; 400 ppm a.i.): 3%
- Efficacy in % found (Alternaria solani; Table D1, 200 ppm a.i.): 30%
- Efficacy in % found (Sphaerotheca fuliginea; 400 ppm a.i.): 0%
